Earlier results as cited in US7247427B1, “Leptin assay” (Yeda Research and Development Co., Ltd., priority 1999, dated 2007).

Test system: cultured adipocytes
Conditions: no Angiopoietin-2 expressed in the absence of leptin

Substance: leptin: the product of the obese gene, expressed in adipocytes; regulates food intake and energy metabolism through its receptor OB-R
- expression of the angiopoietin-2 gene: specifically induces the expression of the angiopoietin-2 gene
